Experimental data published in patent US6432655B1, “Method of obtaining compositions” (Synaptic Pharmaceutical Corporation, priority 1992, dated 2002).
Like-named read-outs stand apart in the source and are kept apart here.

Columns and labels:
[1] = biological target: T1, human 5-HT4B receptor (Homo sapiens, UniProt P34969); assay: cAMP formation in intact, transiently transfected Cos-7 cells; type: cell-based; settings: for stimulation of basal cAMP release: 1 μM; for FOLD cAMP STIMULATION: relative to basal levels; for activity at the clone hp78a receptor: compounds used to define the classical 5-HT4 receptor
T1 construct: The entire coding region of the human 5-HT4B receptor (1338 bp); expressed in transfected cells
T1 sequence (P34969 1-445 isoform P34969-2): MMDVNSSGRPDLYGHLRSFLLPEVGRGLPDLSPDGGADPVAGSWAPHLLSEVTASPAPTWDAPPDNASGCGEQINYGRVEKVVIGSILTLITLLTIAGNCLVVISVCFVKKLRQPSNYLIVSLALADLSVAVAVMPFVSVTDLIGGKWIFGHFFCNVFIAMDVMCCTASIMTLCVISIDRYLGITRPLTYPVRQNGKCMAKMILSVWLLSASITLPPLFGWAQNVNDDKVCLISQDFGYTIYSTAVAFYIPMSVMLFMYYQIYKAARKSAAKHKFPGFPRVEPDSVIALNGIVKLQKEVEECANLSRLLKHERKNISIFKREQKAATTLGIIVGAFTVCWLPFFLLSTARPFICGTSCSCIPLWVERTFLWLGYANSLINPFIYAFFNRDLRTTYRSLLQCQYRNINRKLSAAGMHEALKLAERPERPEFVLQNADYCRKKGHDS

[2] = biological target: T1, human 5-HT4B receptor; assay: cell-based; type: cell-based; settings: for Emax: L-M(TK-), read-out: Emax* (% 5-HT RESPONSE)
[3] = biological target: T2, human 5-HT4B receptor (clone hp78a) (Homo sapiens, UniProt P34969); assay: [3H]5-HT radioligand binding to membranes of Cos-7 cells transiently expressing clone hp78a
T2 construct: The entire coding region of the human 5-HT4B receptor (1338 bp); expressed in transfected cells; host or cells: Cos-7 (monkey kidney), transient, plasmid hp78a/EXJ (pcEXV-5HT4B)
T2 sequence (P34969 1-445 isoform P34969-2): as above

[4] = biological target: T3, human 5-HT1F receptor (Homo sapiens, UniProt P30939); settings: cited from earlier work
T3 sequence (P30939 1-366): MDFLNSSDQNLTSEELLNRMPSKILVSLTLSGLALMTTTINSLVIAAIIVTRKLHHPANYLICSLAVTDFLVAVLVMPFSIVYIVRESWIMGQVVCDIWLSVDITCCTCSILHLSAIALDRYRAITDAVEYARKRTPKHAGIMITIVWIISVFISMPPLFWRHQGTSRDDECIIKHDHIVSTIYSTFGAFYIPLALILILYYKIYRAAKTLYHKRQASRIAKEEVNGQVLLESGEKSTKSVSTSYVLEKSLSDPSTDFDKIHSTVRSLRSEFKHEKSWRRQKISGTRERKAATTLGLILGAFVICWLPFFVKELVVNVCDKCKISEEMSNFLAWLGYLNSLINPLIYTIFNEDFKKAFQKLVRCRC

[5] = biological target: human 5-HT1E receptor (Homo sapiens, UniProt P28566); settings: cited from earlier work
human 5-HT1E receptor, sequence (P28566 whole entry): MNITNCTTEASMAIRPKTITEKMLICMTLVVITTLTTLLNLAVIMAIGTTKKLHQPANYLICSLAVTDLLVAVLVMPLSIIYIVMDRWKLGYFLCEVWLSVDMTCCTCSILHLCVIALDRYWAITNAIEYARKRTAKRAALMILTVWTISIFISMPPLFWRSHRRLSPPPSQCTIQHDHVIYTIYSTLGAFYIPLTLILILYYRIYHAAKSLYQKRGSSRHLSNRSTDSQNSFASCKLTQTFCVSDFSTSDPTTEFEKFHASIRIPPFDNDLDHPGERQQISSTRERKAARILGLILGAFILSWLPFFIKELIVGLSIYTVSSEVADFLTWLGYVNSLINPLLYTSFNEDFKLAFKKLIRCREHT

[6] = tested on: untransfected or mock-transfected Cos-7 cells; assay: cAMP in untransfected or mock-transfected Cos-7 cells; type: cell-based, monkey; settings: 1 μM
Protocol: Both the 5-HT-mediated inhibition and stimulation of cAMP levels were evaluated in these three intact cell preparations. Intracellular cAMP formation was measured by radioimmunoassay (cAMP Radioimmunoassay kit, Advanced Magnetics, Cambridge, Mass.) using methodology outlined by Zgombick et al. (1991). Radioactivity was quantitatied using a Packard COBRA Auto Gamma Counter (equipped with data reduction software).

[7] = biological target: 5-HT receptor present in glial membranes; settings: read-out: EC50 value for 5-HT stimulation of cAMP; Fillion et al., 1980; property shared with hp78a; cited from earlier work
[8] = tested on: 5-HT receptors on NCB20 cells; settings: Berry-Kravis and Dawson, 1983; read-out: affinity of [3H]-5-HT; cited from earlier work
[9] = biological target: 5-HT receptor present in glial membranes; settings: Fillion et al., 1980; property shared with hp78a; read-out: equilibrium dissociation constant Kd; cited from earlier work
[10] = biological target: T4, 5-HT4B receptor (Rattus norvegicus, UniProt P32305); assay: [3H]5-CT receptor autoradiography on rat brain sections; type: binding; settings: 1 μM, 0.5 nM [3H]5-CT
T4 construct: from tissue; host or cells: rat brain cryostat sections (20 µm)
T4 sequence (P32305 whole entry): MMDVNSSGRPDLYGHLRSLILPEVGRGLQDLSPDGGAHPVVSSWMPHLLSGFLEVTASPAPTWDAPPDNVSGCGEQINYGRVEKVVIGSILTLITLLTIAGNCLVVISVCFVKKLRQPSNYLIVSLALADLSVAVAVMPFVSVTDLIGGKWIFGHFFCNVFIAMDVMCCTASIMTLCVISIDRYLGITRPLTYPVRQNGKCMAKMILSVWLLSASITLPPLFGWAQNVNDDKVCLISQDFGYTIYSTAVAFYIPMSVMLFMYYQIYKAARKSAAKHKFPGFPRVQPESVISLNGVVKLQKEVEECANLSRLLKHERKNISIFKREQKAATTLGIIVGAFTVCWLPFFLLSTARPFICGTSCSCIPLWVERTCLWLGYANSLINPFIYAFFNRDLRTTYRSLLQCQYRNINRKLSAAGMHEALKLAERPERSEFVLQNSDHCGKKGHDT

[11] = 100 nM competitor, 5 nM [3H]5-HT, 30 min at 37° C.
[12] = 5 nM [3H]5-HT, seven concentrations of competitor, 30 min at 37° C., mean ± S.E.M., 2-5 determinations, read-out: Ki (apparent dissociation constants for clone hp78a)
[13] = read-out: Ki (apparent dissociation constants for clone hp78a)
[14] = Ki (apparent dissociation constants for clone hp78a)

CCCN(CCC)C1CCc2cccc(O)c2C1 (stereo not drawn)
stimulation of basal cAMP release [1]: about 2 fold | INTRINSIC ACTIVITY [2]: PARTIAL AGONIST | functional character [2]: weak agonist | Emax* (% 5-HT RESPONSE) ([2]; normalized to the 5-HT maximal response): 51 ± 14 % 5-HT RESPONSE

NCCc1c[nH]cn1 [Histamine]
PERCENT INHIBITION (displacement of specific [3H]5-HT binding) [3, 11]: 10

CN1C[C@H](CNC(=O)OCc2ccccc2)C[C@@H]2c3cccc4c3c(cn4C)C[C@H]21 [Metergoline]
Ki [3, 12]: 6.4 ± 1.4 nM | antagonism of the 5-HT response ([1]; 10 μM): almost completely | FOLD cAMP STIMULATION ([1]; 10 μM drug): 0

O=C(c1ccc(F)cc1)C1CCN(CCn2c(=O)[nH]c3ccccc3c2=O)CC1 [Ketanserin]
Ki [3, 12]: 1330 ± 241 nM

CN1[C@@H]2CC[C@H]1C[C@@H](OC(=O)c1c[nH]c3ccccc13)C2 [ICS 203930]
PERCENT INHIBITION (displacement of specific [3H]5-HT binding) ([3]; 1000 nM competitor, 5 nM [3H]5-HT, 30 min at 37° C.): 10 | inhibitory effect on the 5-HT response ([1]; 100 μM): weak inhibitory effect | % INHIBITION OF 5-HT RESPONSE ([1]; 100 μM drug, cAMP response to 1 μM 5-HT): 36 ± 3.0% | FOLD cAMP STIMULATION ([1]; 100 μM drug): 0 | activity at the clone hp78a receptor [1]: either poorly active or inactive

COC(=O)[C@@H]1[C@H]2C[C@H]3c4[nH]c5ccccc5c4CCN3C[C@@H]2CC[C@@H]1O [Yohimbine]
Ki [3, 13]: 2850 ± 354 nM

NC[C@H](O)c1ccc(O)c(O)c1 [Norepinephrine]
PERCENT INHIBITION (displacement of specific [3H]5-HT binding) ([3]; 30 nM competitor, 5 nM [3H]5-HT, 30 min at 37° C.): 0

NCCc1c[nH]c2ccc(C(N)=O)cc12 [5-CT, 5-Carboxamidotryptamine]
Ki [4]: > 700 nM | agonist activity [1]: potent agonists | INTRINSIC ACTIVITY [2]: AGONIST (key: AGONIST indicates that the maximal response to the drug was at least 80% of the maximum response obtained with 5-HT) | functional character [2]: potent agonists | Emax [2]: 110 ± 19% | Ki [5]: > 700 nM

COc1cc(N)c(Cl)cc1C(=O)NC1CCN(CCCOc2ccc(F)cc2)CC1OC (stereo not drawn) [cisapride]
activity at the clone hp78a receptor [1]: either poorly active or inactive

NCCc1c[nH]c2ccc(O)cc12 [5-HT, 5-Hydroxytryptamine]
effect on basal or FSK-stimulated adenylate cyclase activity [6]: no effect | EC50 [7]: 500 to 1000 nM | increase in cAMP release over basal levels [1]: 20 fold | stimulation of basal cAMP release [1]: 7 fold | stimulation of intracellular cAMP accumulation ([1]; coincubation of 1 μM FSK and 1 μM 5-HT): 75 fold | INTRINSIC ACTIVITY [2]: AGONIST (AGONIST indicates that the maximal response to the drug was at least 80% of the maximum response obtained with 5-HT)

CNS(=O)(=O)Cc1ccc2[nH]cc(CCN(C)C)c2c1 [Sumatriptan]
Ki [3, 13]: 951 ± 118 nM

CC(C)NCC(O)COc1cccc2ccccc12 (stereo not drawn) [Propranolol]
PERCENT INHIBITION (displacement of specific [3H]5-HT binding) [3, 11]: 0

O=C(CCCN1CCC2(CC1)C(=O)NCN2c1ccccc1)c1ccc(F)cc1 [Spiperone]
Ki [3, 12]: 110 ± 17 nM

COc1cc(N)c(Cl)cc1C(=O)NC1CN2CCC1CC2 (stereo not drawn) [Zacopride]
Ki [3, 13]: > 5000 nM | activity at the clone hp78a receptor [1]: either poorly active or inactive

CN(C)CCc1c[nH]c2ccc(O)cc12 [Bufotenin]
Ki [3, 14]: 26 nM

COc1cc(CC(C)N)c(OC)cc1I (stereo not drawn) [DOI]
PERCENT INHIBITION (displacement of specific [3H]5-HT binding) [3]: 20

NCCc1c[nH]c2ccc(O)cc12 [[^3H]5-HT]
Kd [8]: ~200 nM | Kd [9]: 10 nM

CN1C[C@H](C(=O)N[C@]2(C)O[C@@]3(O)[C@@H]4CCCN4C(=O)[C@H](Cc4ccccc4)N3C2=O)C=C2c3cccc4[nH]cc(c34)C[C@H]21 [Ergotamine]
Ki [3, 14]: 15 nM | Ki ([3]; Ki for clone hp78a): < 20 nM | effect on specific [3H]5-CT binding [10]: completely eliminated

COc1ccc2[nH]cc(CCN)c2c1 [5-MeOT, 5-Methoxytryptamine]
agonist activity [1]: potent agonists | INTRINSIC ACTIVITY [2]: AGONIST (key: AGONIST indicates that the maximal response to the drug was at least 80% of the maximum response obtained with 5-HT) | functional character [2]: potent agonists | Emax [2]: 100 ± 5%
